What all share (assay): phosphoenolpyruvate titration of purified optical probe (fluorescence ratio)
What all share (type): binding
Settings in all cases: phosphoenolpyruvate 0 to 10 mM, purified probe treated 10 minutes, ex 420/485 nm, em 528 nm

Assay [1] deals with T1, Thermus thermophilus TtPFK optical probe 254/255-TtPFK-I253K/Q254L/R255L/G256F-cpYFP-Y1S, SEQ ID NO: 12 (Thermus thermophilus, UniProt P21777, form not given/G256F/I253K/Q254L/R255L).
T1 construct: the numbering corresponds to the full length of the phosphoenolpyruvate-sensitive polypeptide; His-tag; made in house; host or cells: E. coli BL21 (DE3)
How it is done: (§1) • 1. The expression vectors (for example, a phosphoenolpyruvate optical probe expression vector based on pCDF.) were transformed into BL21 (DE3) cells, incubated inverted overnight, and the clones were picked from the plates into 250 mL Erlenmeyer flasks, placed in a shaker at 37 °C and incubated at 220 rpm to OD=0.4-0.8, then 1/1000 (V/V) of IPTG (1 M) was added to induce expression at 18 °C for 24-36 hours. • 2. Upon completion of inducible expression, cells were harvested by centrifugation at 4000 rpm for 30 min, resuspended in 50 mM phosphate buffer and disrupted ultrasonically until the broth were clear, centrifuged at 9600 rpm at 4 °C for 20 min. • 3. The centrifuged supernatant was used to obtain protein by purification through a self-packed nickel column affinity chromatography column, and the protein obtained after nickel column affinity chromatography was further used to obtain protein dissolved in 100 mM HEPES buffer (pH 7.4). • 4. After purified proteins were subjected to SDS-PAGE, probes were diluted to a protein solution having a final concentration of 0.2-5 µM using assay buffer (100 mm HEPES, 100 mM NaCl, pH 7.4). Phosphoenolpyruvate was formulated as a stock solution at a final concentration of 50 mM with the assay buffer (100 mM HEPES, 100 mM NaCl, pH 7.4). • 5. 100 µl 1 µM of protein solution was taken, incubated at 37 °C for 10 min, phosphoenolpyruvate was added for titration, and the fluorescence intensity of 528 nm emission after 420 nm and 485 nm fluorescence excitation of the protein was measured. The fluorescence excitation and emission determination of the samples were done using a multifunctional fluorescence microplate reader. • 6. 100 µl 1 µM of protein solution was taken, incubated at 37 °C for 10 min, and phosphoenolpyruvate was added to determine the absorption and fluorescence spectra of the proteins. Determination of the absorption and fluorescence spectra of the samples was done by spectrophotometer and spectrofluorometer.
(§2) The recombinant plasmids of the mutation library were transformed into BL21 (DE3) to induce expression, and the purified probe protein was subjected to phosphoenolpyruvate-responsive screening, dividing the detection signal of the fusion fluorescent protein containing 2 mM phosphoenolpyruvate by that of the fusion fluorescent protein without phosphoenolpyruvate. […]

Assay [2] has as its target T2, Thermus thermophilus TtPFK optical probe 254/255-TtPFK-cpYFP variant, TtPFK Q254L/R255L/G256H, cpYFP Y1S (Thermus thermophilus, UniProt P21777, form not given/G256H/Q254L/R255L).
T2 construct: the numbering corresponds to the full length of the phosphoenolpyruvate-sensitive polypeptide; His-tag; made in house; host or cells: E. coli BL21 (DE3)
The procedure: as §1, §2

Assay [3] addresses T3, Thermus thermophilus TtPFK optical probe 254/255-TtPFK-cpYFP variant, TtPFK I253Y/Q254I (Thermus thermophilus, UniProt P21777, form not given/I253Y/Q254I/Q254N).
T3 construct: the numbering corresponds to the full length of the phosphoenolpyruvate-sensitive polypeptide; His-tag; made in house; host or cells: E. coli BL21 (DE3)
How it is done: as §1, §2

Assay [4] concerns the target T4, Thermus thermophilus TtPFK optical probe 254/256-TtPFK-cpYFP variant, TtPFK G213T/I253Q/Q254L/G256V/G257L, cpYFP Y1T/N246F (Thermus thermophilus, UniProt P21777, form not given/G213T/G256V/G257L/I253Q/Q254L).
T4 construct: the numbering corresponds to the full length of the phosphoenolpyruvate-sensitive polypeptide; His-tag; made in house; host or cells: E. coli BL21 (DE3)
The procedure:
as §1
(§3) For the 254/255-TtPFK-cpYFP obtained in Example 2 and the 254/255-TtPFK-I253G/Q254L/R255L/G256F-cpYFP-Y1P, 254/255-TtPFK-I253K/Q254L/R255L/G256F-cpYFP-Y1S and 254/256-TtPFK-I253Q/Q254L/G256V/G257L-cpYFP-Y1T/N246F optical probes obtained in Example 6, amino acid were mutated at positions R21, R25, V54, R55, V57, A58, N59, I60, I61, R155, G186, R212, G213, K214, K215, S216 and L320 in the phosphoenolpyruvate binding pocket, and at positions R72, R163, R172 and R246 in the ATP binding pocket to adjust the affinity of the phosphoenolpyruvate optical probe to phosphoenolpyruvate and the substrate specificity. The probes were linearized by reverse PCR, and the sequences of the mutation sites were introduced into the primers. The obtained PCR products were subjected to homologous recombination to obtain plasmids containing the above site mutations. The mutant plasmids were transformed into BL21 (DE3) for induced expression, and the mutant probe proteins were purified for the phosphoenolpyruvate response test. The detection signal of the fusion fluorescent protein containing 2 mM phosphoenolpyruvate was divided by the detection signal of the fusion fluorescent protein without phosphoenolpyruvate. […]

For assay [5], the target named is T5, Thermus thermophilus TtPFK optical probe 254/255-TtPFK-cpYFP variant, TtPFK V54K/I253K/Q254L/R255L/G256F, cpYFP Y1S (Thermus thermophilus, UniProt P21777, form not given/G256F/I253K/Q254L/R255L/V54K).
T5 construct: the numbering corresponds to the full length of the phosphoenolpyruvate-sensitive polypeptide; His-tag; made in house; host or cells: E. coli BL21 (DE3)
The procedure: as §1, §3

The target in assay [6] is T6, Thermus thermophilus TtPFK optical probe 254/256-TtPFK-cpYFP variant, TtPFK R212M/I253Q/Q254L/G256V/G257L, cpYFP Y1T/N246F (Thermus thermophilus, UniProt P21777, form not given/G256V/G257L/I253Q/Q254L/R212M).
T6 construct: the numbering corresponds to the full length of the phosphoenolpyruvate-sensitive polypeptide; His-tag; made in house; host or cells: E. coli BL21 (DE3)
How it is done:
as §1, §3

Assay [7] deals with T7, Thermus thermophilus TtPFK optical probe 254/255-TtPFK-cpYFP variant, TtPFK N59H/I253K/Q254L/R255L/G256F, cpYFP Y1S (Thermus thermophilus, UniProt P21777, form not given/G256F/I253K/N59H/Q254L/R255L).
T7 construct: the numbering corresponds to the full length of the phosphoenolpyruvate-sensitive polypeptide; His-tag; made in house; host or cells: E. coli BL21 (DE3)
How it is done: as §1, §3

Assay [8] deals with T8, Thermus thermophilus TtPFK optical probe 254/256-TtPFK-cpYFP variant, TtPFK S216Y/I253Q/Q254L/G256V/G257L, cpYFP Y1T/N246F (Thermus thermophilus, UniProt P21777, form not given/G256V/G257L/I253Q/Q254L/S216Y).
T8 construct: His-tag; made in house; host or cells: E. coli BL21 (DE3), pCDF vector
The procedure: as §1, §3

The term Kd denotes a measure of binding affinity in units of concentration. As to `C=C(OP(=O)(O)O)C(=O)O` [phosphoenolpyruvate, Phosphoenolpyruvate], the equilibrium dissociation constant (Kd) is 17.5 µM in assay [1]; 8.5 µM in assay [2]; 1.55 µM in assay [3]; 199 µM in assay [4]; 129 µM in assay [5]; 714 µM in assay [6]. In addition, the values for the Kd in assay [7] and in assay [8] were 87.7 µM and 2.36 µM, respectively.
